Reference: patent EP0262209B1, “SYNERGISTIC PLANT GROWTH REGULATOR COMPOSITIONS” (RHONE POULENC NEDERLAND B.V., priority 1986, dated 1987)

Legend:
[1] = tested on: cotton; assay: Sequential applications, defoliation of cotton (Example XI, Table H); assay type: in vivo; conditions: Rate 0.25 Pounds per Acre, alone
Method: In a manner similar to the procedure described in Example VI , the defoliation effect on snapbean plants was determined for representative synergistic compositions using both combination (tank mix) and sequential application methods. In the sequential application method, the second compound was applied 78 hours after the first compound. TABLE E
In a manner similar to the procedure described in Example VIII , the defoliation effect on cotton was determined for representative synergistic compositions using sequential application. Ethephon applications were made 7 days after application of the particular malonic acid derivative compound. TABLE H

[2] = tested on: snapbean plants; assay: Defoliation of snapbean plants at various rates, 72 hours (Example VII, Table D); assay type: in vivo, Phaseolus vulgaris var. Cranberry; conditions: 72 hours after treatment
Method: (§1) Solutions of the test compounds and compositions identified in Table C below were prepared by dissolving the compounds in acetone/water (50:50 volume/volume) containing 0.1 percent volume/volume of Triton X-100 surfactant commercially available from Rhom and Haas Company, Philadelphia, Pennsylvania. As detailed below, these solutions of the test compounds and compositions were applied to snapbean plants at a concentration of 0.25 pounds of each active ingredient per acre (0.28 kg/ha) or 0.50 pounds of each active ingredient per acre (0.56 kg/ha). The compositions were applied to the snapbean plants as a mixture. Ethephon is commercially available from Union Carbide Agricultural Products Company, Inc., Research Triangle Park, North Carolina.
(§2) Into 13.5 centimeter diameter plastic pots containing a potting soil mix, i.e., one-third sandy loam soil, one-third peat moss and one-third perlite by volume, were sown three snapbean seeds (Phaseolus vulgaris var. Cranberry). Five to seven days after planting, the plants were thinned to one plant per pot. Ten to fourteen days after planting at the time of full expansion of the primary leaves, each concentration of the test compounds and compositions identified in […] (each pot sprayed with a volume equivalent to 180 gallons per acre) - i.e. 1683 l/ha was applied to three snapbean plants as a foliar spray by use of an aspirated spray apparatus set at 10 psig air pressure (517 mmHg). As a control, a water-acetone solution containing no test compound or composition was also sprayed on three snapbean plants. When dry, all or the plants were placed in a greenhouse at a temperature of 80°F ± 5°F (27°C ± 3°C) and humidity of 50 percent ± 5 percent. At 96 hours after treatment, percent defoliation of the snapbean plants was determined by visual observation. The values obtained For the control and each test compound and composition were averaged to obtain the results in Table C.
In a manner similar to the procedure described in Example VI, the defoliation effect on snapbean plants was determined for representative synergistic compositions at various rates of application except that percent defoliation of the snapbean plants was determined at 72 hours after treatment. TABLE D

[3] = tested on: mature tobacco plants; assay: Leaf ripening (chlorosis) of tobacco (Example XV, Table L); assay type: in vivo; conditions: Rate 1.0 Pounds per Acre, alone; upper three leaves; 7 days after treatment; control 10
Method: as §1, with “Ethephon is commercially available from Union Carbide Agricultural Products Company, Inc., Research Triangle Park, North Carolina.” left out
(§3) Into 13.5 centimeter diameter plastic pots containing a potting soil mix, i.e., one-third sandy loam soil, one-third peat moss and one-third perlite by volume, were sown three snapbean seeds (Phaseolus vulgaris var. Cranberry). […] At 96 hours after treatment, percent defoliation of the snapbean plants was determined by visual observation. […]
In a manner similar to the procedure described in Example VI except that mature tobacco plants were used in place of snapbean plants, the leaf ripening effect of tobacco was determined for representative synergistic compositions at various rates of application. […] Percent tobacco leaf ripening (chlorosis) was determined by visual observation of the upper three leaves of the tobacco plant at 7 days after treatment. […]

[4] = tested on: cotton plants; assay: Defoliation and boll opening of cotton under field conditions (Example IX, Table F); assay type: in vivo; conditions: Rate 2.0 Pounds per Acre
Method: (§4) Solutions of the test compounds and compositions identified in Table F were prepared by dissolving the compounds in acetone/water (50:50 volume/volume) containing 0.1 percent volume/volume of Surfel® spray adjuvant commercially available from Union Carbide Corporation, Danbury, Connecticut. As detailed below, these solutions of test compounds and compositions were applied to cotton plants at a concentration of 0.5 pounds of each active ingredient per acre (0,6 kg/ha) or 2.0 pounds of active ingredient per acre (2,2 kg/ha). The compositions were applied to cotton as mixtures.
(§5) The above solutions were applied to cotton plants growing under field conditions at a spray volume equivalent to 100 gallons per acre 935 l/ha) by use of a carbon dioxide backpack sprayer set at about 30 psig air pressure (2 bar). The application timing coincided with a cotton maturity phase equivalent to about 40 percent open bolls. As a control, a water-acetone solution containing no test compound or composition was also sprayed on the cotton plants. At four days after treatment, percent defoliation of the cotton plants was determined by visual observation. At 14 days after treatment, percent boll opening was determined by visual observation of the number of open bolls/total number of bolls. The percent defoliation and percent boll opening values obtained for the control and each of the test compounds and compositions are reported in Table F as the average of three replications. TABLE F

[5] = tested on: cotton; assay: Defoliation of cotton at various rates (Example XIII, Table J); assay type: in vivo; conditions: Rate 0.5 Pounds per Acre, alone
Method: as §4, §5
In a manner similar to the procedure described in Example IX , the defoliation effect on cotton was determined for representative synergistic compositions at various rates of application. TABLE J

[6] = tested on: cotton plant; assay: Regrowth of cotton following defoliation, DEF treated plant as standard (Example XIV, Table K); assay type: in vivo; conditions: for Percent Stimulation: regrowth relative to DEF standard (43 percent), 30 days after treatment
Method: as §4, §5
In a manner similar to the procedure described in Example IX , the effect of cotton regrowth after defoliation was determined for representative synergistic compositions at various rates of application. The percent regrowth inhibition and stimulation in Table R below were determined by visual observation based on the percent of a cotton plant having regrowth using a DEF treated cotton plant as the standard. DEF is commercially available from Mobay Chemical Corporation, Kansas City, Missouri. The average regrowth of a cotton plant treated with DEF was 43 percent. As used in Table R, percent regrowth inhibition resulted from a cotton plant having a regrowth percentage less than 43 percent (DEF standard), and percent regrowth stimulation resulted from a cotton plant having a regrowth percentage greater than 43 percent. The percent regrowth inhibition and stimulation were determined 30 days after treatment.

[7] = tested on: snapbean plants; assay: Combination/sequential applications, defoliation of snapbean plants (Example VIII, Table E); assay type: in vivo, Phaseolus vulgaris var. Cranberry; conditions: Rate 0.5 Pounds per Acre, applied alone
Method: as §1
as §3, with “Cranberry). Five to seven days after planting, the plants were thinned to one plant per pot.” for “Cranberry).”
In a manner similar to the procedure described in Example VI , the defoliation effect on snapbean plants was determined for representative synergistic compositions using both combination (tank mix) and sequential application methods. […]

[8] = tested on: cotton; assay: Defoliation of cotton at various rates (Example XII, Table I); assay type: in vivo; conditions: Rate 0.5 Pounds per Acre, alone
Method: as §4, §5
In a manner similar to the procedure described in Example IX , the defoliation effect on cotton was determined for representative synergistic compositions at various rates of application.

[9] = tested on: snapbean plants; assay: Defoliation of snapbean plants, foliar spray (Example VI, Table C); assay type: in vivo, Phaseolus vulgaris var. Cranberry; conditions: Phaseolus vulgaris, foliar, 96 h, read-out: Percent Defoliation
Method: as §1, §2

[10] = tested on: rank growth cotton; assay: Defoliation of cotton (rank growth) (Example X, Table G); assay type: in vivo; conditions: Rate 2.0 Pounds per Acre
Method: as §4, §5
In a manner similar to the procedure described in Example IX , the defoliation effect on rank growth cotton was determined for representative synergistic compositions at various rates of application. […] TABLE G

[11] = tested on: snapbean plants; assay: Defoliation of snapbean plants with various ethylene releasing agents (Example XVI, Table M); assay type: in vivo, Phaseolus vulgaris var. Cranberry
Method: as §1, §2
In a manner similar to the procedure described in Example VI , the defoliation effect on snapbean plants was determined for representative synergistic compositions at various rates of application using various ethylene releasing agents identified in Table M below. The ethylene releasing agents used in […] are known materials which can be prepared by conventional methods.

[12] = Gossypium hirsutum, 720 h, read-out: Percent Inhibition

## O=P(O)(O)CCCl [Ethephon, 2-chloroethylphosphonic acid, reference compound]
[1]
  Percent Defoliation: 3%
[2]; Rate 0.25 Pounds per Acre
  Percent Defoliation: 0%
[2]; Rate 0.50 Pounds per Acre
  Percent Defoliation: 0%
[3]
  Percent Ripening (Chlorosis): 10%
[4]; 14 days after treatment, control 41
  Percent Boil Opening: 64%
[4]; field conditions, four days after treatment
  Percent Defoliation: 5%
[5]
  Percent Defoliation: 5%
[6]; [12]
  inhibition at 560.425 g/ha: 0%
  inhibition at 1120.85 g/ha: 0%
  inhibition at 2241.7 g/ha: 0%
[6]; Rate 0.5 Pounds per Acre
  Percent Stimulation: 16%
[6]; Rate 1.0 Pounds per Acre
  Percent Stimulation: 70%
[6]; Rate 2.0 Pounds per Acre
  Percent Stimulation: 62%
[7]
  Percent Defoliation: 0%
[8]
  Percent Defoliation: 13%
[9]
  pest or weed control at 280.212 g/ha: 0%
  pest or weed control at 560.425 g/ha: 21%
[10]
  Percent Defoliation: 12%
[11]; Rate 0.125 Pounds per Acre
  Percent Defoliation: 0%
[11]; Rate 0.25 Pounds per Acre
  Percent Defoliation: 0%
[11]; Rate 0.50 Pounds per Acre
  Percent Defoliation: 0%
